The text below walks through data of ChEMBL document CHEMBL1201862, “PubChem BioAssay data set” (2004).

Holding throughout (experiment): growth of human tumour cells (NCI), 48 h
The test system of assay [1] is SF-539.
The subject of assay [2] is A498.
In assay [3] the test system is SN12C.
Assay [4] deals with NCI/ADR-RES.
Assay [5] concerns CAKI-1.
The subject of assay [6] is IGROV-1.
In assay [7] the test system is SK-MEL-5.
The test system of assay [8] is NCI-H522.
The test system of assay [9] is Hs-578T.
The test system of assay [10] is KM12.
Assay [11] concerns EKVX.
Assay [12] deals with SF-295.
The test system of assay [13] is OVCAR-5.
In assay [14] the test system is HT-29.
The test system of assay [15] is PC-3.

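Protocol summary: plate cells (96-well), add compound at 5 concentrations, incubate 48 h, interpolate endpoints linearly. GI50 is the concentration that inhibits growth by half.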 Active and inactive are the calls of the source. Rule as the data show it: active = GI50 up to about 1.1 µM and inactive = higher.

Take `COc1cc(C2C3=C(COC3=O)Oc3cc4c(cc32)OCO4)ccc1O` (stereo not given): the GI50 in assay [1] was 0.281 µM (active); in assay [2], 0.668 µM (active); in assay [3], 2.69 µM (inactive); in assay [4] it was 0.242 µM (active); in assay [5] it was 0.0445 µM (active); in assay [6] it was 0.509 µM (active). In addition, the GI50 is 0.0728 µM (active) in assay [7]; 0.0792 µM (active) in assay [8]; 0.329 µM (active) in assay [9]; 0.262 µM (active) in [10]; 1.05 µM (active) in [11]; 0.127 µM (active) in assay [12]. Further, the GI50 is 3.78 µM (inactive) in [13], 0.359 µM (active) in assay [14] and 0.167 µM (active) in assay [15].

With `NC(=S)Nc1nc(=S)[nH]c2c1SC1=N/C(=C\c3ccco3)C(=O)N12`, the GI50 in assay [1] was > 77.6 µM (inactive); in assay [2], > 100 µM (inactive); in [3], > 100 µM (inactive); in assay [4], > 100 µM (inactive); in [5], > 82.4 µM (inactive); in assay [6], 45.2 µM (inactive). The GI50 in assay [7] is > 82.8 µM (inactive); in assay [8], 27 µM (inactive); in [9], > 100 µM (inactive); in [10], 98.6 µM (inactive); in [11] it was 59 µM (inactive); in [12] it was > 100 µM (inactive). Moreover, the GI50 was > 100 µM (inactive) in assay [13], > 60.4 µM (inactive) in assay [14] and > 100 µM (inactive) in assay [15].

Regarding `O=C(N/N=C\c1ccc([N+](=O)[O-])s1)c1ccncc1`, the GI50 in [1] was 6.28 µM (inactive); in assay [2], 23.4 µM (inactive); in [3], 8.65 µM (inactive); in [4], 22.8 µM (inactive); in [5], 27.9 µM (inactive); in [6], 10.3 µM (inactive). Further, the GI50 is 3.25 µM (inactive) in assay [7]; 4.75 µM (inactive) in assay [8]; 15.8 µM (inactive) in [9]; 10 µM (inactive) in assay [10]; 20.7 µM (inactive) in assay [11]; 16.4 µM (inactive) in assay [12]. Besides, the GI50 in assay [13] was 29.9 µM (inactive); in assay [14] it was 4.13 µM (inactive); in assay [15], 11.6 µM (inactive).

Take `Oc1c(CN2CCOCC2)ccc(CN2CCOCC2)c1O`: the GI50 is 25.7 µM (inactive) in [1]; > 100 µM (inactive) in [2]; 25.6 µM (inactive) in [3]; 30.1 µM (inactive) in [4]; 52 µM (inactive) in assay [5]; 70.5 µM (inactive) in assay [6]. Besides, the GI50 in [7] is 25.5 µM (inactive); in assay [8] it was 29.6 µM (inactive); in assay [9] it was > 100 µM (inactive); in [10], 75.7 µM (inactive); in assay [11], 50.8 µM (inactive); in [12], 26 µM (inactive). The GI50 in assay [13] is 57 µM (inactive); in [14] it was 52.1 µM (inactive); in assay [15] it was 48 µM (inactive).

`CCCC(=O)N1CCN(c2ccc3c(c2)OC(C)O3)CC1` (stereo not given): the GI50 in assay [1], in assay [2], in assay [3], in assay [4], in [5] and in assay [6] was > 100 µM (inactive) throughout. In addition, the GI50 in assay [7], in assay [8], in [9], in assay [10], in assay [11] and in assay [12] was > 100 µM (inactive) each time. For the same molecule, the GI50 in assay [13], in assay [14] and in [15] was > 100 µM (inactive) in each case.

Take `COc1ccc(-c2nc(O)c3ccccc3n2)cc1`: the GI50 in assay [1] was 45.9 µM (inactive); in [2] it was 47 µM (inactive); in assay [3], 61.2 µM (inactive); in assay [4], 27.1 µM (inactive); in assay [5] it was 76.6 µM (inactive); in assay [6] it was 29.1 µM (inactive). In addition, the GI50 in [7] was > 100 µM (inactive); in [8] it was 52.7 µM (inactive); in [9], 2.44 µM (inactive); in [10] it was > 100 µM (inactive); in [11], > 100 µM (inactive); in assay [12] it was > 100 µM (inactive). Moreover, the GI50 in assay [13], in [14] and in assay [15] was > 100 µM (inactive) each time.

Regarding `CCCCCCCC(=O)OC[n+]1cccc(-c2c(COC(=O)NC(C)C)c(COC(=O)NC(C)C)c3n2CCC3)c1`, the GI50 in assay [1] was 33.7 µM (inactive); in assay [2], 35.3 µM (inactive); in assay [3], 48 µM (inactive); in assay [4] it was > 100 µM (inactive); in [5], 18.9 µM (inactive); in [6], > 51.2 µM (inactive). The GI50 in [7] was > 100 µM (inactive); in [8], 40.4 µM (inactive); in [9] it was > 100 µM (inactive); in assay [10], > 100 µM (inactive); in assay [11] it was > 100 µM (inactive); in [12], > 84.1 µM (inactive). The figures for the GI50 in assay [13], in assay [14] and in assay [15] were > 100 µM (inactive), > 100 µM (inactive) and > 88.3 µM (inactive), respectively.

As to `CC(=O)N1C(CCc2ccccc2)CC(C)(C=O)C1Cc1ccc(O[Si](C(C)C)(C(C)C)C(C)C)cc1` (stereo not given), the GI50 in assay [1] is 2.43 µM (inactive); in assay [2], 2.87 µM (inactive); in assay [3], 3.29 µM (inactive); in assay [4], 8.81 µM (inactive); in [5], 3.05 µM (inactive); in assay [6], 4.9 µM (inactive). Also, the GI50 is 3.4 µM (inactive) in assay [7]; 2.15 µM (inactive) in assay [8]; 3.28 µM (inactive) in assay [9]; 3.02 µM (inactive) in [10]; 4.75 µM (inactive) in [11]; 5.11 µM (inactive) in assay [12]. Besides, the values for the GI50 in assay [13], in [14] and in assay [15] were 14.7 µM (inactive), 2.86 µM (inactive) and 3.18 µM (inactive), respectively.

In the case of `Cc1ccc(C[N+](C)(C)N)cc1C`, the GI50 in assay [1], in assay [2], in [3], in [4], in assay [5] and in [6] was > 10 µM (inactive) each time. For the same molecule, the GI50 in assay [7], in assay [8], in [9], in [10], in assay [11] and in [12] was > 10 µM (inactive) in each case. In addition, the GI50 in [13], in assay [14] and in assay [15] was > 10 µM (inactive) throughout.

Turning to `O=S(=O)(NC1OCCCC1I)c1ccccc1` (stereo not given), the GI50 is > 100 µM (inactive) in assay [1]; > 100 µM (inactive) in assay [2]; > 100 µM (inactive) in assay [3]; > 100 µM (inactive) in [4]; > 100 µM (inactive) in assay [5]; 44.5 µM (inactive) in [6]. Moreover, the GI50 in assay [7], in [8], in assay [9], in assay [10], in assay [11] and in [12] was > 100 µM (inactive) each time. Also, the GI50 in assay [13], in [14] and in assay [15] was > 100 µM (inactive) each time.

For the molecule `Clc1ccc(C(c2ccc(Cl)cc2)N2CCNCC2)cc1`, the GI50 in [1] is 1.87 µM (inactive); in assay [2], 1.78 µM (inactive); in assay [3], 2.89 µM (inactive); in assay [4], 3.1 µM (inactive); in [5], 4.39 µM (inactive); in [6], 1.77 µM (inactive). Also, the GI50 in assay [7] was 2.02 µM (inactive); in assay [8] it was 1.78 µM (inactive); in assay [9], 2.74 µM (inactive); in [10], 1.77 µM (inactive); in assay [11] it was 3.02 µM (inactive); in assay [12] it was 2.28 µM (inactive). Also, the GI50 was 6.78 µM (inactive) in [13], 2.03 µM (inactive) in assay [14] and 2.45 µM (inactive) in assay [15].

Consider `O=C1CC2OCC=C3CN4CCC5(C(=O)O)C(N1)C2C3CC45` (stereo not given), for which the GI50 in assay [1], in assay [2], in assay [3], in assay [4], in [5] and in assay [6] was > 100 µM (inactive) each time. In addition, the GI50 in [7], in assay [8], in assay [9], in assay [10], in assay [11] and in assay [12] was > 100 µM (inactive) in each case. The GI50 in assay [13], in assay [14] and in assay [15] was > 100 µM (inactive) throughout.

With `CC1CN=C(Nc2ccccc2)S1` (stereo not given), the GI50 in [1], in assay [2], in assay [3], in assay [4], in [5] and in [6] was > 100 µM (inactive) in each case. In addition, the GI50 in [7], in assay [8], in assay [9], in assay [10], in assay [11] and in [12] was > 100 µM (inactive) each time. The GI50 in assay [13], in [14] and in assay [15] was > 100 µM (inactive) throughout.
